Measurements from ChEMBL document CHEMBL6182912, “Development of Novel Phthalazinone-Triazole Hybrids as Potential Antidiabetic Agents Targeting GLUT4 Translocation in Skeletal Muscle” (J Med Chem, 2025).
Calls of active or inactive are those of the source. No cut-off for these calls is given here.

Key:
[1] = target: T1, Solute carrier family 2, facilitated glucose transporter member 4 (Rattus norvegicus) (UniProt P19357); experiment: Modulation of GLUT4 translocation in rat L6-GLUT4myc skeletal muscle cells assessed as increase in surface GLUT4myc level by measuring fold stimulation at 10 uM measured after 16 hrs by O-phenylenediamine assay relative to control; format: cell-based; details: filed as modulator
T1 sequence (whole entry): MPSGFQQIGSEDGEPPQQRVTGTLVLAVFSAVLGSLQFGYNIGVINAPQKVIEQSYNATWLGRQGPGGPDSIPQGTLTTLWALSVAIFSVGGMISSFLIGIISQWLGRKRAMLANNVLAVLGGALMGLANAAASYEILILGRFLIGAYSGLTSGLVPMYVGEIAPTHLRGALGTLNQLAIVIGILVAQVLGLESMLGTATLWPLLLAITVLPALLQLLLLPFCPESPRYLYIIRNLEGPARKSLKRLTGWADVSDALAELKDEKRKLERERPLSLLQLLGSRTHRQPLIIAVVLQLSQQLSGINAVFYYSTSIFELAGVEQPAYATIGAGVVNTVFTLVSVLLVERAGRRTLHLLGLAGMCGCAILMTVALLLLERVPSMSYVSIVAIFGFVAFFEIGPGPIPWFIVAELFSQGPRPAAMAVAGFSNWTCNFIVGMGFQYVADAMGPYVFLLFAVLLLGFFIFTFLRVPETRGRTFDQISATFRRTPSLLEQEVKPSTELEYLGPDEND

[2] = target: T1, Solute carrier family 2, facilitated glucose transporter member 4 (Rattus norvegicus); experiment: Modulation of GLUT4 translocation in rat L6-GLUT4myc skeletal muscle cells assessed as increase in surface GLUT4myc level measured after 16 hrs by O-phenylenediamine assay; format: cell-based; details: filed as modulator, dose 5-25 µM
[3] = Stability in SIF at pH 6.8 assessed as compound remaining measured after 120 mins by UPLC analysis; format: physicochemical; details: read-out: Stability
[4] = Stability in SGF at pH 1.2 assessed as compound remaining measured after 120 mins by UPLC analysis; format: physicochemical; details: read-out: Stability
[5] = Stability in rat plasma assessed as compound remaining measured after 120 mins by UPLC analysis; format: ADME, cell-free; details: read-out: Stability
[6] = Stability in SPF at pH 7.4 assessed as compound remaining measured after 120 mins by UPLC analysis; format: physicochemical; details: read-out: Stability
[7] = target: T1, Solute carrier family 2, facilitated glucose transporter member 4 (Rattus norvegicus); experiment: Modulation of insulin-stimulated GLUT4 translocation in rat L6-GLUT4myc skeletal muscle cells assessed as increase in surface GLUT4myc level at 10 uM pretreated with compound overnight and cultured final 3 hrs of compound treatment in serum-starved medium followed by insulin addition measured after 20 mins by O-phenylenediamine assay; format: cell-based; details: filed as modulator
[8] = target: T1, Solute carrier family 2, facilitated glucose transporter member 4 (Rattus norvegicus); experiment: Modulation of insulin-stimulated GLUT4 translocation in rat L6-GLUT4myc skeletal muscle cells assessed as increase in surface GLUT4myc level at 10 uM pretreated with compound and wortmannin for 16 hrs and cultured final 3 hrs of compound treatment in serum-starved medium followed by insulin addition measured after 20 mins by O-phenylenediamine assay; format: cell-based; details: time 980.0 min
[9] = target: T1, Solute carrier family 2, facilitated glucose transporter member 4 (Rattus norvegicus); experiment: Modulation of insulin-stimulated GLUT4 translocation in rat L6-GLUT4myc skeletal muscle cells assessed as increase in AKT phosphorylation Ser473 at 10 uM pretreated with compound for 16 hrs followed by insulin addition measured after 10 mins by Western blot analysis; format: cell-based; details: filed as modulator, time 970.0 min
[10] = target: T1, Solute carrier family 2, facilitated glucose transporter member 4 (Rattus norvegicus); experiment: Modulation of insulin-stimulated GLUT4 translocation in rat L6-GLUT4myc skeletal muscle cells assessed as increase in AKT phosphorylation Ser473 at 10 uM pretreated with compound and wortmannin for 16 hrs followed by insulin addition measured after 10 mins by Western blot analysis; format: cell-based; details: time 970.0 min
[11] = target: T1, Solute carrier family 2, facilitated glucose transporter member 4 (Rattus norvegicus); experiment: Modulation of GLUT4 translocation in rat L6-GLUT4myc skeletal muscle cells assessed as increase in GLUT4 mRNA level at 10 uM incubated for 16 hrs by RT-PCR analysis; format: cell-based; details: filed as modulator
L6-GLUT4myc [12] = experiment: Effect on AKT2 mRNA level in rat L6-GLUT4myc at 10 uM incubated for 16 hrs by RT-PCR analysis; format: functional, cell-based
L6-GLUT4myc [13] = experiment: Effect on IRS1 mRNA level in rat L6-GLUT4myc at 10 uM incubated for 16 hrs by RT-PCR analysis; format: functional, cell-based
[14] = target: T1, Solute carrier family 2, facilitated glucose transporter member 4 (Rattus norvegicus); experiment: Modulation of GLUT4 translocation in rat L6-GLUT4myc skeletal muscle cells assessed as increase in AMPK-alpha phosphorylation at Thr172 at 10 uM incubated for 16 hrs by Western blot analysis; format: cell-based; details: filed as modulator
Rattus norvegicus [15] = experiment: Anti-hyperglycemic effect in STZ-induced diabetic male Sprague-Dawley rat assessed as reduction in blood glucose level at 100 mg/kg, po; format: functional, organism-based; details: time 30-300 min
Rattus norvegicus [16] = experiment: Anti-hyperglycemic effect in STZ-induced diabetic male Sprague-Dawley rat assessed as reduction in blood glucose level at 100 mg/kg, po measured after 5 hrs relative to control; format: functional; parameters: scale not given: the % may be the effect or the level left
[17] = target: T1, Solute carrier family 2, facilitated glucose transporter member 4 (Rattus norvegicus); experiment: Modulation of GLUT4 translocation in rat L6-GLUT4myc skeletal muscle cells assessed as increase in surface GLUT4myc level by measuring fold stimulation at 1 mM measured after 1 hr by O-phenylenediamine assay relative to control; format: cell-based; details: filed as modulator
[18] = target: T1, Solute carrier family 2, facilitated glucose transporter member 4 (Rattus norvegicus); experiment: Modulation of GLUT4 translocation in rat L6-GLUT4myc skeletal muscle cells assessed as increase in surface GLUT4myc level by measuring fold stimulation at 500 uM measured after 16 hrs by O-phenylenediamine assay relative to control; format: cell-based; details: filed as modulator
Rattus norvegicus [19] = experiment: Anti-hyperglycemic effect in STZ-induced diabetic male Sprague-Dawley rat assessed as reduction in blood glucose level at 300 mg/kg, po measured after 5 hrs relative to control; format: functional; parameters: scale not given: the % may be the effect or the level left
[20] = target: T1, Solute carrier family 2, facilitated glucose transporter member 4 (Rattus norvegicus); experiment: Modulation of insulin-stimulated GLUT4 translocation in rat L6-GLUT4myc skeletal muscle cells assessed as increase in surface GLUT4myc level at 50 nM pretreated with compound for 16 hrs and cultured final 3 hrs of compound treatment in serum-starved medium followed by insulin addition measured after 20 mins by O-phenylenediamine assay; format: cell-based; details: time 980.0 min
[21] = target: T1, Solute carrier family 2, facilitated glucose transporter member 4 (Rattus norvegicus); experiment: Modulation of insulin-stimulated GLUT4 translocation in rat L6-GLUT4myc skeletal muscle cells assessed as increase in AKT phosphorylation Ser473 pretreated with compound for 16 hrs followed by insulin addition measured after 10 mins by Western blot analysis; format: cell-based; details: time 970.0 min

SMILES: O=C(NCc1cn(-c2ccc(OC(F)(F)F)cc2)nn1)c1cc(Cc2n[nH]c(=O)c3ccccc23)ccc1F
- fold change (FC) [1]: 1.59

SMILES: Cc1ccc(-n2cc(CNC(=O)c3ccc(Cc4n[nH]c(=O)c5ccccc45)cc3)nn2)cc1
- fold change (FC) [1]: 0.77

SMILES: COc1ccc(-n2cc(CNC(=O)c3cc(Cc4n[nH]c(=O)c5ccccc45)ccc3F)nn2)cc1
- fold change (FC) [1]: 1.92
- Activity [2]: Dose-dependent-effect

SMILES: O=C(NCc1cn(-c2ccc(C(F)(F)F)cc2)nn1)c1cc(Cc2n[nH]c(=O)c3ccccc23)ccc1F
- fold change (FC) [1]: 1.77

SMILES: O=C(OCc1cn(-c2ccccc2)nn1)c1ccc(Cc2n[nH]c(=O)c3ccccc23)cc1
- fold change (FC) [1]: 0.94

SMILES: Cc1ccc(-n2cc(COC(=O)c3cc(Cc4n[nH]c(=O)c5ccccc45)ccc3F)nn2)cc1
- fold change (FC) [1]: 0.98

SMILES: COc1ccc(-n2cc(CNC(=O)c3ccc(Cc4n[nH]c(=O)c5ccccc45)cc3)nn2)cc1
- fold change (FC) [1]: 1.12

SMILES: O=C(NCc1cn(-c2ccccc2)nn1)c1cc(Cc2n[nH]c(=O)c3ccccc23)ccc1F
- remaining at 2 h [3]: ≤ 60%
- remaining at 2 h [4]: ≤ 60%
- remaining at 2 h [5]: ≤ 60%
- fold change (FC) [1]: 1.93
- remaining at 2 h [6]: ≤ 60%
- Activity [2]: Dose-dependent-effect
- Activity [7]: Active
- Activity [8]: inactive
- Activity [9]: Active
- Activity [10]: inactive
- Activity [11]: Active
- Activity (L6-GLUT4myc [12]): No effect
- Activity (L6-GLUT4myc [13]): No effect
- Activity [14]: Active
- Activity (Rattus norvegicus [15]): Time-dependent-effect
- Activity (Rattus norvegicus [16]): ~38.7%

SMILES: O=C(OCc1cn(-c2ccc(Br)cc2)nn1)c1cc(Cc2n[nH]c(=O)c3ccccc23)ccc1F
- fold change (FC) [1]: 1.39

SMILES: O=C(OCc1cn(-c2ccc(F)cc2)nn1)c1ccc(Cc2n[nH]c(=O)c3ccccc23)cc1
- fold change (FC) [1]: 0.99

SMILES: O=C(OCc1cn(-c2ccc(F)cc2)nn1)c1cc(Cc2n[nH]c(=O)c3ccccc23)ccc1F
- fold change (FC) [1]: 1.03

SMILES: Cc1ccc(-n2cc(COC(=O)c3ccc(Cc4n[nH]c(=O)c5ccccc45)cc3)nn2)cc1
- fold change (FC) [1]: 0.9

SMILES: O=C(NCc1cn(-c2ccc(Cl)c(Cl)c2)nn1)c1cc(Cc2n[nH]c(=O)c3ccccc23)ccc1F
- fold change (FC) [1]: 1.49

SMILES: O=C(NCc1cn(-c2ccccc2)nn1)c1ccc(Cc2n[nH]c(=O)c3ccccc23)cc1F
- fold change (FC) [1]: 1.36

SMILES: CC(C)c1ccc(-n2cc(CNC(=O)c3cc(Cc4n[nH]c(=O)c5ccccc45)ccc3F)nn2)cc1
- fold change (FC) [1]: 1.1

SMILES: O=C(NCc1cn(-c2ccc(Cl)cc2)nn1)c1cc(Cc2n[nH]c(=O)c3ccccc23)ccc1F
- fold change (FC) [1]: 1.53

SMILES: O=C(NCc1cn(-c2cccc3ccccc23)nn1)c1cc(Cc2n[nH]c(=O)c3ccccc23)ccc1F
- fold change (FC) [1]: 1.15

SMILES: O=C(NCc1cn(-c2ccc(F)cc2F)nn1)c1cc(Cc2n[nH]c(=O)c3ccccc23)ccc1F
- fold change (FC) [1]: 1.75

SMILES: O=C(NCc1cn(-c2ccc(F)cc2)nn1)c1ccc(Cc2n[nH]c(=O)c3ccccc23)cc1
- fold change (FC) [1]: 1.11

SMILES: O=C(NCc1cn(-c2ccc(Br)cc2)nn1)c1cc(Cc2n[nH]c(=O)c3ccccc23)ccc1F
- fold change (FC) [1]: 1.87

SMILES: NC(=O)c1ncn([C@@H]2O[C@H](CO)[C@@H](O)[C@H]2O)c1N
- fold change (FC) [17]: 1.56

SMILES: COc1cccc(Cl)c1-n1cc(CNC(=O)c2cc(Cc3n[nH]c(=O)c4ccccc34)ccc2F)nn1
- fold change (FC) [1]: 1.14

SMILES: COc1ccc(OC)c(-n2cc(CNC(=O)c3cc(Cc4n[nH]c(=O)c5ccccc45)ccc3F)nn2)c1
- fold change (FC) [1]: 1.29

SMILES: COc1ccc(-n2cc(COC(=O)c3cc(Cc4n[nH]c(=O)c5ccccc45)ccc3F)nn2)cc1
- fold change (FC) [1]: 1.31

SMILES: CC(C)c1ccc(-n2cc(COC(=O)c3cc(Cc4n[nH]c(=O)c5ccccc45)ccc3F)nn2)cc1
- fold change (FC) [1]: 1.52

SMILES: COc1cc(-n2cc(CNC(=O)c3cc(Cc4n[nH]c(=O)c5ccccc45)ccc3F)nn2)cc(OC)c1OC
- fold change (FC) [1]: 1.08

SMILES: Cc1ccc(-n2cc(CNC(=O)c3cc(Cc4n[nH]c(=O)c5ccccc45)ccc3F)nn2)cc1
- fold change (FC) [1]: 1.92
- Activity [2]: Dose-dependent-effect

SMILES: C#CCNC(=O)c1ccc(Cc2n[nH]c(=O)c3ccccc23)cc1
- fold change (FC) [1]: 1.17

SMILES: O=C(NCc1cn(-c2ccc(Br)cc2)nn1)c1ccc(Cc2n[nH]c(=O)c3ccccc23)cc1
- fold change (FC) [1]: 0.89

SMILES: O=C(NCc1cn(-c2ccc(OC(F)(F)F)cc2)nn1)c1ccc(Cc2n[nH]c(=O)c3ccccc23)cc1
- fold change (FC) [1]: 1.04

SMILES: O=C(OCc1cn(-c2ccc(Br)cc2)nn1)c1ccc(Cc2n[nH]c(=O)c3ccccc23)cc1
- fold change (FC) [1]: 1.54

SMILES: COc1cccc(-n2cc(CNC(=O)c3cc(Cc4n[nH]c(=O)c5ccccc45)ccc3F)nn2)c1
- fold change (FC) [1]: 1.4

SMILES: O=C(NCc1cn(-c2ccc(Cl)cc2)nn1)c1ccc(Cc2n[nH]c(=O)c3ccccc23)cc1
- fold change (FC) [1]: 1.09

SMILES: O=C(NCc1cn(-c2ccc(F)cc2)nn1)c1cc(Cc2n[nH]c(=O)c3ccccc23)ccc1F
- fold change (FC) [1]: 1.98

SMILES: O=C(NCc1cn(-c2cccc(F)c2)nn1)c1cc(Cc2n[nH]c(=O)c3ccccc23)ccc1F
- fold change (FC) [1]: 0.84

SMILES: CN(C)C(=N)NC(=N)N [METFORMIN]
- fold change (FC) [18]: 1.65
- Activity (Rattus norvegicus [19]): 64.7%

SMILES: O=C(NCc1cn(-c2ccccc2F)nn1)c1cc(Cc2n[nH]c(=O)c3ccccc23)ccc1F
- fold change (FC) [1]: 0.86

SMILES: O=C(OCc1cn(-c2ccccc2)nn1)c1cc(Cc2n[nH]c(=O)c3ccccc23)ccc1F
- fold change (FC) [18]: 0.97

SMILES: O=C(NCc1cn(-c2ccccc2)nn1)c1ccc(Cc2n[nH]c(=O)c3ccccc23)cc1
- fold change (FC) [1]: 1.48

SMILES: COc1cccc(OC)c1-n1cc(CNC(=O)c2cc(Cc3n[nH]c(=O)c4ccccc34)ccc2F)nn1
- fold change (FC) [1]: 1.31

SMILES: COc1ccccc1-n1cc(CNC(=O)c2cc(Cc3n[nH]c(=O)c4ccccc34)ccc2F)nn1
- fold change (FC) [1]: 1.01

SMILES: COC[C@H]1OC(=O)c2coc3c2[C@@]1(C)C1=C(C3=O)[C@@H]2CCC(=O)[C@@]2(C)C[C@H]1OC(C)=O
- Activity [20]: inactive
- Activity [21]: inactive
